# Reference: patent publication US11077126B2 (priority 2017, dated 2021)
# Marks after values point to notes of the source that are not given here.
# What was measured:
# [1] = tested on: transplanted tumor of human lymphoma U937 cells; assay: Human lymphoma in nude mice model; details: 30 mg/kg i.g. 30 d
# Procedure: (§1) U937 cells in a logarithmic growth phase were taken and subjected to a trypan blue exclusion experiment showing that the cell viability was more than 95%, then the cells were subjected to trypsinization, centrifugation, and supernatant removal. Then cell concentration was adjusted to 1×10^7/ml with matrigel, and then each nude mouse was inoculated subcutaneously with 0.2 ml of cells at its right armpit and recorded as the first day of inoculation. […] Each group was continuously administered intragastrically for 30 days with a dose of 20 ml/kg. The mice were sacrificed the next day after drug withdrawal and the indicators were tested. The long diameter and short diameter of the tumor, and the body weight of each mouse were recorded every 3 days from drug administration to nude mouse sacrifice.
# (§2) The body weight of the nude mice and the long diameter (a) and short diameter (b) of the transplanted tumor were measured every 3 days, and the tumor volume (v), relative tumor volume (RTV) and relative tumor proliferation rate (T/C) are calculated respectively according to the following formulas, wherein V=a×b^2/2; RTV=V/V0 (V0 is the tumor volume before administration, V is the tumor volume before sacrifice), and T/C (%)=treatment group RTV/model control group RTV×100%.
# (§3) Each mouse was weighed and sacrificed. After the tumor was completely stripped off from the body of the mouse, the non-tumor tissues such as blood stains and fat were removed to weigh the tumor and calculate the tumor growth inhibition rate. The average tumor weight of each group of mice is used as an indicator of efficacy. Tumor growth inhibition rate (%)=(1−the average tumor weight of the treatment group/the average tumor weight of the model group)×100%.
# [2] = tested on: transplanted tumor of human large cell lung cancer H460 cells; assay: Human large cell lung cancer (H460) in nude mice model; details: 30 mg/kg i.g. 30 d
# Procedure: as §1, with “Then” for “U937 cells in a logarithmic growth phase were taken and subjected to a trypan blue exclusion experiment showing that the cell viability was more than 95%, then the cells were subjected to trypsinization, centrifugation, and supernatant removal. Then”
# as §2, §3
# [3] = tested on: transplanted tumor of mouse Lewis lung cancer; assay: Inhibition of transplanted tumor of mouse Lewis lung cancer
# Procedure: Lewis lung cancer cells were cultured in a RPMI 1640 culture medium containing 10% fetal bovine serum at 37° C. in a 5% CO2 incubator. The cells in the logarithmic growth phase were subjected to trypsinization with 0.25% trypsin, then the cells were collected to be centrifugated to remove the obtained supernatant, then were washed twice with sterile normal saline. […] The Lewis cells were adjusted to 1×10^7/mL in concentration and stored in ice water. 75% ethanol was used to disinfect the skin under the right armpits of the mice, and each C57BL/6 mouse was soon inoculated subcutaneously with 0.2 ml of the cells at its right armpit.
# In the Lewis lung cancer model, the mice inoculated with the tumor were randomly divided into groups with 10 mice in each group on the next day of inoculation. […] Each group was continuously administered intragastrically for 15 days with a dose of 20 ml/kg.
# The tumor-bearing mice were weighed and sacrificed the next day after the last administration. The subcutaneous tumors were dissected and weighed. The average tumor weight of each group is calculated, and the tumor inhibition rate is calculated. Tumor inhibition rate=(1−T/C)×100%
# T: average tumor weight of the drug-administered group; C: average tumor weight of the blank control group.
# [4] = tested on: spleen of A549 lung cancer tumor-bearing mice; assay type: in vivo
# Procedure: (§4) After the tumor-bearing mice are sacrificed, the spleen and thymus are weighed, and the spleen index and thymus index are calculated.
# [5] = tested on: thymus and spleen of H22 liver cancer tumor-bearing mice; assay type: in vivo
# Procedure: as §4
# [6] = tested on: NK cell activity of spleen cells against K562 cells; assay: Natural killer (NK) cell activity of Lewis lung cancer tumor-bearing mice; assay type: in vivo, C57BL/6 mouse
# Procedure: The serum-free RPMI 1640 medium was placed in a dish, and then the dish was placed on ice. The spleen was aseptically taken and gently ground with a sterile glass slide to prepare a single cell suspension. The single cell suspension was filtered with a double-layer sterile gauze, washed twice with serum-free RPMI 1640 medium, and centrifuged at 1,500 rpm for 5 min to remove the obtained supernatant. 2 mL of red blood cell lysate was added to the treated suspension, the mixture was allowed to stand for 2 min, and then 8 mL of RPMI 1640 medium was added, centrifuging was performed at 1,500 rpm for 5 min to remove the obtained supernatant, and then washing was performed twice with the RPMI 1640 medium. Trypan blue staining was performed to count the number of live cells, and the cell viability was more than 95%. […]
# The spleen cell suspension was taken, and the cell density was adjusted to 1×10^7/mL (effector cells). […] Each mouse was set with: A. effector cells:target cell well (quantity ratio 20:1) to which 20 μL of spleen cell suspension and 100 μL of K562 cell suspension were added; B. an effector cell control well, to which 100 μL of spleen cell suspension and 100 μL of RPMI 1640 medium were added; and C. a target cell control well, to which 100 μL of K562 cell suspension and 100 μL of RPMI 1640 medium were added. […]
# [7] = H22 tumor-bearing mice, cyclophosphamide, P<0.01
smiles,measurement,setting,value
O=P1(N(CCCl)CCCl)NCCCO1 (centres unmarked) [Cyclophosphamide],Body Weight (g)(d1),[1],19.79 ± 0.86 g
same,Body Weight (g)(d30),[1],18.85 ± 0.62 g
same,Inhibition Rate (%),[1],78.40%
same,Relative Tumor Proliferation Rate(T/C),[1],34.30%
same,Relative Tumor Volume (RTV),[1],6.37 ± 0.94
same,Tumor Volume (mm^3) (d1),[1],139.58 ± 11.25 mm^3
same,Tumor Volume (mm^3) (d30),[1],889.72 ± 59.73*** mm^3
same,Tumor Weight,[1],0.38 ± 0.16 g
same,Body Weight (g)(d1),[2],20.32 ± 0.87 g
same,Body Weight (g)(d30),[2],19.25 ± 0.83 g
same,Inhibition Rate (%),[2],68.49%
same,Relative Tumor Proliferation Rate(T/C),[2],36.37%
same,Relative Tumor Volume (RTV),[2],7.66 ± 1.26
same,Tumor Volume (mm3) (d1),[2],130.82 ± 2.38 mm3
same,Tumor Volume (mm3) (d30),[2],1002.08 ± 48.82 mm3
same,Tumor Weight,[2],0.61 ± 0.13 g
same,Tumor Weight,"[3]; 26 mg/kg, positive drug group, 15 days",0.59 ± 0.13 g
same,Inhibition Rate (%),"[3]; 26 mg/kg, positive drug group, by tumor weight",49.14%
same,Body Weight (g)(d1),"[3]; 26 mg/kg, positive drug group, d1",25.60 ± 2.06 g
same,Body Weight (g) (d15),"[3]; 26 mg/kg, positive drug group, d15",20.14 ± 3.26 g
same,tumor inhibition rate,"[3]; mouse Lewis lung cancer, cyclophosphamide 30 mg/kg i.g. 15 days",49.14%
same,Spleen Index (%),"[4]; 26 mg/kg, positive drug group, n = 6",0.20 ± 0.03 %
same,spleen index compared with the control group,"[4]; A549 lung cancer tumor-bearing mice, cyclophosphamide, P<0.01",significantly lower
same,Spleen Index (%),"[5]; 26 mg/kg, positive drug group",0.38 ± 0.09 %
same,Thymus Index (%),"[5]; 26 mg/kg, positive drug group",0.04 ± 0.02 %
same,spleen index compared with the control group,[5]; [7],significantly lower
same,thymus index compared with the control group,[5]; [7],significantly lower
same,NK Cell Activity (%),"[6]; 26 mg/kg, n = 6",25.4 ± 6.6 %
same,NK cell activity compared with the control group,"[6]; cyclophosphamide, P<0.05",significantly lower
